We go through 22 compounds from ChEMBL document CHEMBL5042539, “Structure-Guided Discovery of the Novel Covalent Allosteric Site and Covalent Inhibitors of Fructose-1,6-Bisphosphate Aldolase to Overcome the Azole Resistance of Candidiasis” (J Med Chem, 2022).

In general, IC50 refers to the point on the concentration scale where inhibition reaches its midpoint. What is called MIC80 is the lowest concentration that inhibits either 80% of growth or 80% of the strains tested, depending on the study. The inhibition is the percentage by which the read-out fell short of the control.

Converted amounts (≈) assume the structure as drawn. The source made the active and inactive calls. The calls are words filed in the database; no cut-off is given here. Some results are limits rather than exact numbers.

Data set [1] can be described thus: Inhibition of wild type Candida albicans Fructose-1,6-Bisphosphate Aldolase transfected in Escherichia coli BL21 (DE3) incubated for 3 mins in presence of NADH by spectrophotometric analysis.
The test system of data set [2] is Candida albicans. Briefly: Antifungal activity against Candida albicans SC5314 incubated for 48 hrs by CLSI based broth microdilution method. In kind it is functional.
Data set [3] concerns Candida albicans. Briefly: Antifungal activity against fluconazole resistant Candida albicans 103 incubated for 48 hrs by CLSI based broth microdilution method. In kind it is functional. On the technique in general: Broth dilution looks for growth in wells or tubes with falling amounts of substance.
Data set [4] relates to Candida albicans. Briefly: Antifungal activity against fluconazole resistant Candida albicans 904 incubated for 48 hrs by CLSI based broth microdilution method. Format: functional.
Data set [5] has as its system Candida albicans. Briefly: Antifungal activity against fluconazole resistant Candida albicans 7781 incubated for 48 hrs by CLSI based broth microdilution method. Format: functional.
Data set [6] has as its system Candida albicans. Briefly: Antibiofilm activity against azole resistant Candida albicans 0304103 assessed as inhibition of biofilm formation by XTT assay. Format: functional, organism-based. The settings on record: dose 0-64 µg/ml.
Data set [7] is described as follows: Cytotoxicity against human HaCaT cells. In kind it is toxicity, cell-based.
Data set [8] relates to Candida albicans. Kind of data set: Antifungal activity against azole-resistant Candida albicans 030410 assessed as inhibition of fungal filamentation by measuring reduction in yeast-hypha transition at 32 ug/ml by microscopic analysis. In kind it is functional, organism-based. The conditions noted are these: dose 32.0 µg/ml.
The subject of data set [9] is Candida albicans. Kind of data set: Inhibition of wild type Candida albicans Fructose-1,6-Bisphosphate Aldolase transfected in Escherichia coli BL21 (DE3) at 50 uM incubated for 3 mins in presence of NADH by spectrophotometric analysis relative to control.

In the case of `O=C(C(=O)n1sc2ccccc2c1=O)c1ccccc1`, the IC50 in [1] was determined as 15700 nM.

In the case of `CCCCc1ccc(-n2[se]c3ccccc3c2=O)cc1`, the MIC80 with Candida albicans [2] turned out to be 8 µg/mL (≈ 24.2 µM); with Candida albicans [3] it was 4 µg/mL (≈ 12.1 µM); against Candida albicans [4] it was 8 µg/mL (≈ 24.2 µM); in the data set on Candida albicans [5], 4 µg/mL (≈ 12.1 µM). For the same compound, the half-maximal inhibitory concentration (IC50) in data set [1] stood at 100 nM.

With `CCc1ccc(-n2[se]c3ccccc3c2=O)cc1`, the MIC80 in the data set on Candida albicans [2] came to 4 µg/mL (≈ 13.2 µM); with Candida albicans [3], 1 µg/mL (≈ 3.31 µM); with Candida albicans [4], 4 µg/mL (≈ 13.2 µM); with Candida albicans [5], 2 µg/mL (≈ 6.62 µM). For the same compound, the Activity entry with Candida albicans [6] is “Dose-Dependent Effect”. Moreover, the half-maximal inhibitory concentration (IC50) in data set [7] was > 32000 nM; in data set [1], 92 nM. In addition, the outcome with Candida albicans [8] was Active.

In the case of `O=C(Cc1ccccc1)n1sc2ccccc2c1=O`, the IC50 in data set [1] turned out to be 488 nM.

Turning to `COc1ccc(-n2[se]c3ccccc3c2=O)cc1`, the MIC80 in the data set with Candida albicans [2], against Candida albicans [3], in the data set with Candida albicans [4] and in the data set on Candida albicans [5] was 4 µg/mL (≈ 13.1 µM) each time. For the same compound, in data set [1], the IC50 is 91 nM.

With `OC(Cn1cncn1)(Cn1cncn1)c1ccc(F)cc1F` [FLUCONAZOLE], the MIC80 was 0.25 µg/mL (≈ 0.816 µM) in the data set with Candida albicans [2], > 64 µg/mL in the data set with Candida albicans [3], > 64 µg/mL with Candida albicans [4] and > 64 µg/mL against Candida albicans [5]. Moreover, the outcome with Candida albicans [6] was Active. Further, the outcome in the data set with Candida albicans [8] was inactive.

`O=c1c2ccccc2[se]n1-c1ccc(N2CCOCC2)cc1`: the concentration for half-maximal inhibition (IC50) in data set [1] came out at 130 nM.

With `O=c1c2ccccc2sn1-c1ccccc1`, the values for the IC50 in data set [7] and in [1] were > 32000 nM and 242 nM, respectively.

Regarding `COC(=O)c1ccc(-n2[se]c3ccccc3c2=O)cc1`, the MIC80 worked out at 8 µg/mL (≈ 24.1 µM) against Candida albicans [2], 4 µg/mL (≈ 12 µM) with Candida albicans [3], 8 µg/mL (≈ 24.1 µM) against Candida albicans [4] and 8 µg/mL (≈ 24.1 µM) against Candida albicans [5]. For the same compound, the 50% inhibitory concentration (IC50) in [1] was 120 nM.

For `O=c1c2ccccc2[se]n1-c1cccc(C(F)(F)F)c1`, the MIC80 against Candida albicans [2] was 4 µg/mL (≈ 11.7 µM); in the data set on Candida albicans [3], 4 µg/mL (≈ 11.7 µM); against Candida albicans [4], 2 µg/mL (≈ 5.84 µM); in the data set on Candida albicans [5], 4 µg/mL (≈ 11.7 µM). The half-inhibitory concentration (IC50) in data set [7] was > 32000 nM; in data set [1], 84 nM.

As to `O=C(NCc1ccccc1)n1sc2ccccc2c1=O`, in data set [1], the IC50 amounted to 370 nM.

In the case of `CC(C)c1ccc(-n2[se]c3ccccc3c2=O)cc1`, the MIC80 against Candida albicans [2] was found to be 4 µg/mL (≈ 12.6 µM); in the data set with Candida albicans [3], 2 µg/mL (≈ 6.32 µM); with Candida albicans [4], 4 µg/mL (≈ 12.6 µM); in the data set with Candida albicans [5], 2 µg/mL (≈ 6.32 µM). Further, the IC50 in data set [7] was > 32000 nM; in [1], 110 nM.

For `C[C@@H]1O[C@@H]1P(=O)(O)O`, the inhibition with Candida albicans [9] came out at 0.32%.

In the case of `O=c1c2ccccc2[se]n1-c1ccc(Cl)cc1Cl`, the MIC80 in the data set on Candida albicans [2] stood at 4 µg/mL (≈ 11.7 µM); against Candida albicans [3], 2 µg/mL (≈ 5.83 µM); in the data set on Candida albicans [4] it was 4 µg/mL (≈ 11.7 µM); in the data set with Candida albicans [5], 2 µg/mL (≈ 5.83 µM). Further, the figures for the IC50 in [7] and in [1] were > 32000 nM and 76 nM, respectively.

Consider `CCCCNC(=O)Nc1ccc(-n2[se]c3ccccc3c2=O)cc1`, for which the MIC80 with Candida albicans [2], with Candida albicans [3], with Candida albicans [4] and against Candida albicans [5] was 8 µg/mL (≈ 20.6 µM) each time. In data set [1], the IC50 turned out to be 93 nM.

With `CCCCCCNC(=O)n1cc(F)c(=O)[nH]c1=O`, in the data set on Candida albicans [9], the inhibition came to 62.2%.

Take `COC(=O)/C=C/C(=O)OC`: the inhibition with Candida albicans [9] is 0.58%.

As to `O=C(NCc1ccccc1)n1[se]c2ccccc2c1=O`, the MIC80 against Candida albicans [2] came to 16 µg/mL (≈ 48.3 µM); with Candida albicans [3], 8 µg/mL (≈ 24.2 µM); against Candida albicans [4] it was 16 µg/mL (≈ 48.3 µM); with Candida albicans [5] it was 8 µg/mL (≈ 24.2 µM). Besides, in data set [1], the concentration for half-maximal inhibition (IC50) was determined as 97.3 nM.

`Cn1sc(=O)n(Cc2ccccc2)c1=O`: the inhibition in the data set on Candida albicans [9] turned out to be 53.7%.

Consider `CC(=O)c1ccc(-n2[se]c3ccccc3c2=O)cc1`, for which the MIC80 turned out to be 16 µg/mL (≈ 50.6 µM) in the data set on Candida albicans [2], 8 µg/mL (≈ 25.3 µM) with Candida albicans [3], 16 µg/mL (≈ 50.6 µM) with Candida albicans [4] and 8 µg/mL (≈ 25.3 µM) in the data set on Candida albicans [5]. The IC50 in [1] was found to be 17.3 nM.

With `O=c1[nH]sc2ccccc12`, the inhibition in the data set with Candida albicans [9] is < 50%. For the same compound, the half-maximal inhibitory concentration (IC50) in data set [1] is > 5000 nM.

In the case of `O=c1c2ccccc2sn1S(=O)(=O)c1ccccc1`, the inhibition in the data set with Candida albicans [9] is < 50%. In addition, the concentration for half-maximal inhibition (IC50) in data set [1] is > 50000 nM.
